Results on 26 compounds are retold here after US10358436B2, “Kinase inhibitors and method of treating cancer” (University Health Network, priority 2010, dated 2019).

Counter-ions that a name gives are not always drawn.

The target in this test is Aurora A (Homo sapiens (Human), UniProt O14965). Nature of the test: Aurora A inhibition assay (Z-Lyte). It is filed as biochemical.
Chain of Aurora A (O14965 whole entry): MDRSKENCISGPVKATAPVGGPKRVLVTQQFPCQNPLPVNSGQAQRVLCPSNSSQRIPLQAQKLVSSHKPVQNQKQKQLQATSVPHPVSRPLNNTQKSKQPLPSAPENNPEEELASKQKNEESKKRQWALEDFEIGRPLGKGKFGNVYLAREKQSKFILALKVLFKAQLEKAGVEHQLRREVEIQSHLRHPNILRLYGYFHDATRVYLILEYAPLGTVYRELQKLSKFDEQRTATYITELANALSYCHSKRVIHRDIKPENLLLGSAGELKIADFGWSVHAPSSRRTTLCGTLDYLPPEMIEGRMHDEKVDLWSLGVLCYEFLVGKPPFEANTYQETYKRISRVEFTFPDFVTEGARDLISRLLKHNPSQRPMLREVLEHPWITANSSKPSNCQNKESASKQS
As a reminder, the inhibition is the change of the read-out against control, counted positive when it falls. Read a high inhibition as a strong effect. For `CN(C)Cc1ccc(/C=C/c2n[nH]c3cc([C@@H]4C[C@@]45C(=O)Nc4ccc(F)cc45)ccc23)cc1` (relative stereo) [Example A208, (1R*,2S*)-(E)-2-(3-(4-((dimethylamino)methyl)styryl)-1H-indazol-6-yl)-5′-flurorospiro[cyclopropane-1,3′-indolin]-2′-one 2,2,2-trifluoroacetate], the inhibition at 1 µM was > 50%. `O=C1Nc2ccccc2[C@]12C[C@H]2c1ccc2c(/C=C/c3ccc(CCN4CCOCC4)cc3)n[nH]c2c1` [Example A205, (1R,2S)-(E)-2-(3-(4-(2-morpholinoethyl)styryl)-1H-indazol-6-yl)spiro[cyclopropane-1,3′-indolin]-2′-one 2,2,2-trifluoroacetate]: the inhibition at 1 µM is > 50%. Turning to `COc1ccc2c(c1)[C@]1(C[C@H]1c1ccc3c(-c4ccc(N5C[C@@H](C)N[C@@H](C)C5)cc4)n[nH]c3c1)C(=O)N2` [Example A126, (1R,2S)-2-(3-(4-(cis-3,5-dimethylpiperazin-1-yl)phenyl)-1H-indazol-6-yl)-5′-methoxyspiro[cyclopropane-1,3′-indolin]-2′-one 2,2,2-trifluoroacetate], the inhibition at 1 µM is < 50%. For `COc1ccc2c(c1)[C@]1(C[C@H]1c1ccc3c(-c4ccc(OCCN5CCCCC5)cc4)n[nH]c3c1)C(=O)N2` [Example A67, (1R,2S)-5′-methoxy-2-(3-(4-(2-(piperidin-1-yl)ethoxy)phenyl)-1H-indazol-6-yl)spiro[cyclopropane-1,3′-indolin]-2′-one 2,2,2-trifluoroacetate salt], the inhibition at 1 µM is < 50%. As to `COc1ccc2c(c1)[C@]1(C[C@H]1c1ccc3c(/C=C/c4ccc(CN5CCCC5)cc4)n[nH]c3c1)C(=O)N2` [Example A83, (1R,2S)-(E)-5′-methoxy-2-(3-(4-(pyrrolidin-1-ylmethyl)styryl)-1H-indazol-6-yl)spiro[cyclopropane-1,3′-indolin]-2′-one 2,2,2-trifluoroacetate], the inhibition at 1 µM was > 50%. `CCN1CCN(c2ccc(/C=C/c3n[nH]c4cc([C@@H]5C[C@@]56C(=O)Nc5ccc(OC)cc56)ccc34)cc2)CC1` [Example A187, (1R,2S)-(E)-2-(3-(4-(4-ethylpiperazin-1-yl)styryl)-1H-indazol-6-yl)-5′-methoxyspiro[cyclopropane-1,3′-indolin]-2′-one 2,2,2-trifluoroacetate]: the inhibition at 1 µM is > 50%. On to `O=C1Nc2ccccc2[C@]12C[C@H]2c1ccc2c(/C=C/c3ccc(CN4CCOCC4)c(F)c3)n[nH]c2c1` [Example A200, (1R,2S)-(E)-2-(3-(3-fluoro-4-(morpholinomethyl)styryl)-1H-indazol-6-yl)spiro[cyclopropane-1,3′-indolin]-2′-one 2,2,2-trifluoroacetate], for which the inhibition at 1 µM was > 50%.

Regarding `COc1ccc2c(c1)C1(CC1c1ccc3c(I)n[nH]c3c1)C(=O)N2` (single isomer, unassigned) [Example A6, (1R*,2S*)- and (1R*,2R*)-2-(3-iodo-1H-indazol-6-yl)-5′-methoxyspiro-[cyclopropane-1,3′-indolin]-2′-one], the inhibition at 1 µM was < 50%. The same measure, in the same setting: as for `COc1ccc2c(c1)[C@]1(C[C@H]1c1ccc3c(/C=C/c4ccc(CN5CCOCC5)cc4)n[nH]c3c1)C(=O)N2C` [Example A102, (1R,2S)-(E)-5′-methoxy-1′-methyl-2-(3-(4-(morpholinomethyl)styryl)-1H-indazol-6-yl)spiro[cyclopropane-1,3′-indolin]-2′-one hydrochloride], the figure is > 50%.

As to `CN1CCc2ccc(/C=C/c3n[nH]c4cc([C@@H]5C[C@@]56C(=O)Nc5ccccc56)ccc34)cc2C1` [Example A65, (1R,2S)-2-(3-((E)-2-(2-methyl-1,2,3,4-tetrahydroisoquinolin-7-yl)vinyl)-1H-indazol-6-yl)spiro[cyclopropane-1,3′-indolin]-2′-one 2,2,2-trifluoroacetate salt], the inhibition at 1 µM was > 50%. As for `COc1ccc2c(c1)[C@]1(C[C@H]1c1ccc3c(-c4ccc(CN5CCN(C)CC5)cc4)n[nH]c3c1)C(=O)N2` (relative stereo) [Example A140, (1R*,2S*)-5′-methoxy-2-(3-(4-((4-methylpiperazin-1-yl)methyl)phenyl)-1H-indazol-6-yl)spiro[cyclopropane-1,3′-indolin]-2′-one bis-2,2,2-trifluoroacetate], the inhibition at 1 µM is < 50%.

Turning to `CCN(CC)Cc1c(F)cc(/C=C/c2n[nH]c3cc([C@@H]4C[C@@]45C(=O)Nc4ccccc45)ccc23)cc1F` [Example A221, (1R,2S)-(E)-2-(3-(4-((diethylamino)methyl)-3,5-difluorostyryl)-1H-indazol-6-yl)spiro[cyclopropane-1,3′-indolin]-2′-one 2,2,2-trifluoroacetate], the inhibition at 1 µM is > 50%. Consider `COc1ccc2c(c1)[C@]1(C[C@H]1c1ccc3c(/C=C/c4ccc(CN5[C@H](C)CCC[C@@H]5C)cc4)n[nH]c3c1)C(=O)N2` [Example A203, (1R,2S)-(E)-2-(3-(4-((cis-2,6-dimethylpiperidin-1-yl)methyl)styryl)-1H-indazol-6-yl)-5′-methoxyspiro[cyclopropane-1,3′-indolin]-2′-one 2,2,2-trifluoroacetate], for which the inhibition at 1 µM is > 50%. As to `O=C1Nc2ccc(F)cc2[C@]12C[C@H]2c1ccc2c(/C=C/c3ccc(CN4CCOCC4)cc3)n[nH]c2c1` [Example A220], the inhibition at 1 µM was > 50%.

One may read the IC50 as the concentration at which inhibition is half-maximal. A lower IC50 goes with greater potency. In the case of `COc1ccc2c(c1)[C@]1(C[C@H]1c1ccc3c(/C=C/c4cc(F)c(CN(C)C)c(F)c4)n[nH]c3c1)C(=O)N2` (relative stereo) [Example A215, (1R*,2S*)-(E)-2-(3-(4-((dimethylamino)methyl)-3,5-difluorostyryl)-1H-indazol-6-yl)-5′-methoxyspiro[cyclopropane-1,3′-indolin]-2′-one 2,2,2-trifluoro acetate], the IC50 is < 100 nM. For the compound `COc1ccc2c(c1)[C@]1(CC1c1ccc3c(/C=C/c4ccc(N5CCN(C)CC5)nc4)n[nH]c3c1)C(=O)N2` (single isomer, unassigned) [Example A31, (1R*,2S*)-5′-methoxy-2-(3-((E)-2-(6-(4-methylpiperazin-1-yl)pyridin-3-yl)vinyl)-1H-indazol-6-yl)spiro[cyclopropane-1,3′-indolin]-2′-one], the inhibition at 1 µM is > 50%.

For the compound `O=C1Nc2ccccc2[C@]12C[C@H]2c1ccc2c(/C=C/c3ccc(CN4CCCCC4)cc3)n[nH]c2c1` (relative stereo) [Example A57, (1R*,2S*)-(E)-2-(3-(4-(piperidin-1-ylmethyl)styryl)-1H-indazol-6-yl)spiro[cyclopropane-1,3′-indolin]-2′-one 2,2,2-trifluoroacetate], the inhibition at 1 µM was > 50%. `CN1C(=O)[C@@]2(C[C@H]2c2ccc3c(/C=C/c4ccc(CN5CCOCC5)cc4)n[nH]c3c2)c2ccccc21` (relative stereo) [Example A87, (1R*,2S*)-(E)-1′-methyl-2-(3-(4-(morpholinomethyl)styryl)-1H-indazol-6-yl)spiro[cyclopropane-1,3′-indolin]-2′-one 2,2,2-trifluoroacetate]: the inhibition at 1 µM is > 50%.

`COc1ccc2c(c1)[C@]1(C[C@H]1c1ccc3c(/C=C/c4cc(F)c(CN5CCOCC5)c(F)c4)n[nH]c3c1)C(=O)N2` (relative stereo) [Example A217, (1R*,2S*)-(E)-2-(3-(3,5-difluoro-4-(morpholinomethyl)styryl-1H-indazol-6-yl)-5′-methoxyspiro[cyclopropane-1,3′-indolin]-2′-one 2,2,2-trifluoroacetate]: the inhibition at 1 µM was > 50%. Turning to `COc1ccc2c(c1)[C@]1(C[C@H]1c1ccc3c(/C=C/c4ccc(N5CCOCC5)nc4)n[nH]c3c1)C(=O)N2` (relative stereo) [Example A213, (1R*,2S*)-5′-methoxy-2-(3-((E)-2-(6-morpholinopyridin-3-yl)vinyl)-1H-indazol-6-yl)spiro[cyclopropane-1,3′-indolin]-2′-one 2,2,2-trifluoroacetate], the inhibition at 1 µM was > 50%. Regarding `O=C1Nc2ccccc2[C@]12C[C@H]2c1ccc2c(/C=C/c3cccnc3)n[nH]c2c1` [Example A29, (1R,2S)-2-(3-((E)-2-(pyridin-3-yl)vinyl)-1H-indazol-6-yl)spiro[cyclopropane-1,3′-indolin]-2′-one], the inhibition at 1 µM is > 50%. Regarding `COc1ccc2c(c1)[C@]1(C[C@H]1c1ccc3c(/C=C/c4ccc(OCCN5CCOCC5)cc4)n[nH]c3c1)C(=O)N2` [Example A194, (1R,2S)-(E)-5′-methoxy-2-(3-(4-(2-morpholinoethoxy)styryl)-1H-indazol-6-yl)spiro[cyclopropane-1,3′-indolin]-2′-one 2,2,2-trifluoroacetate], the inhibition at 1 µM was > 50%. Take `CN1CCc2cc(-c3n[nH]c4cc([C@@H]5C[C@@]56C(=O)Nc5ccccc56)ccc34)ccc2C1` [Example A76, (1R,2S)-2-(3-(2-methyl-1,2,3,4-tetrahydroisoquinolin-6-yl)-1H-indazol-6-yl)spiro[cyclopropane-1,3′-indolin]-2′-one 2,2,2-trifluoroacetate salt]: the inhibition at 1 µM is < 50%.

On to `COc1ccc2c(c1)[C@@]1(C[C@@H]1c1ccc3c(-c4ccc(N5CCN(C)CC5)nc4)n[nH]c3c1)C(=O)N2` [Example A15, (1S,2R)-5′-methoxy-2-(3-(6-(4-methylpiperazin-1-yl)pyridin-3-yl)-1H-indazol-6-yl)spiro[cyclopropane-1,3′-indolin]-2′-one], for which the inhibition at 1 µM was < 50%.

Take `CC(C)(c1ccc(/C=C/c2n[nH]c3cc([C@@H]4C[C@@]45C(=O)Nc4ccccc45)ccc23)cc1)N1CCOCC1` [Example A80, (1R,2S)-(E)-2-(3-(4-(2-morpholinopropan-2-yl)styryl)-1H-indazol-6-yl)spiro[cyclopropane-1,3′-indolin]-2′-one 2,2,2-trifluoroacetate salt]: the inhibition at 1 µM was > 50%. Regarding `CN1CCN(Cc2ccc(-c3n[nH]c4cc([C@@H]5C[C@@]56C(=O)Nc5ccccc56)ccc34)cc2)CC1` (relative stereo) [Example A155, (1R*,2S*)-2-(3-(4-((4-methylpiperazin-1-yl)methyl)phenyl)-1H-indazol-6-yl)spiro[cyclopropane-1,3′-indolin]-2′-one bis-2,2,2-trifluoroacetate], the inhibition at 1 µM was < 50%.
